Test [1] deals with Staphylococcus aureus ATCC 29213. The test can be described thus: MIC, NCCLS M7-A6 broth microdilution, cation-adjusted Mueller Hinton broth (Table 9, no superscript). The settings on record: ATCC 29213. Type of test: cell-based. The procedure:
(§1) Cation-adjusted Mueller Hinton broth was used in the broth microdilution method. In brief, a log-phase bacterial suspension was used to inoculate wells of a 96-well plate so that the final inoculum for each well contained 5×10^5 to 1×10^6 CFU/milliliter. […] Plates were incubated overnight at 37° C. The lowest concentration of peptide that contained no visible growth as evidenced by a lack of turbidity when compared to the control (no peptide) was determined as the MIC. Unless otherwise noted, MIC values listed in Table 9 utilized this method of MIC determination.
For orientation: Broth dilution looks for growth in wells or tubes with falling amounts of substance.

Test [2] deals with Salmonella dublin (Lane). The test can be described thus: MIC, NCCLS M7-A6 broth microdilution (Table 9, no superscript). The class given is cell-based. The procedure: as §1

The values that follow come from patent US20050282755A1, “Compositions having antimicrobial activity and uses thereof” (priority 2004, published 2005).

Converted amounts (≈) assume the structure as drawn. Non-standard residues stand in square brackets, D forms with d. Residues, ends and D or L forms follow the SMILES beside them. *: point of attachment. Octanoyl = CCCCCCCC(=O)*; Hexanoyl = CCCCCC(=O)*

Regarding `CCCCCC(=O)NCCCC[C@H](NC(=O)[C@H](CCCNC(=N)N)NC(=O)[C@H](CCSC)NC(=O)[C@H](Cc1ccccc1)NC(=O)[C@H](CC(N)=O)NC(=O)[C@H](CCCNC(=N)N)NC(=O)[C@H](C)NC(=O)[C@@H](NC(=O)[C@H](CC(=O)O)NC(=O)[C@H](CCCNC(=N)N)NC(=O)[C@H](Cc1c[nH]c2ccccc12)NC(=O)[C@H](CCCNC(=N)N)NC(=O)[C@H](CO)NC(=O)[C@@H](N)CCCNC(=N)N)C(C)C)C(N)=O` [Peptide 183, H2N-RSRWRDVARNFMRK(Hexanyl)-NH2] (H-RSRWRDVARNFMRK(Hexanoyl)-NH2), the “MIC S. aureus” value in test [1] was over 64 µg/mL. Besides, the “MIC S. dublin” value in test [2] was over 64 µg/mL.
Consider `CCCCCC(=O)NCCCC[C@@H](NC(=O)[C@@H](CCCNC(=N)N)NC(=O)[C@@H](CC(C)C)NC(=O)[C@@H](Cc1ccccc1)NC(=O)[C@@H](CC(N)=O)NC(=O)[C@@H](CCCNC(=N)N)NC(=O)[C@@H](C)NC(=O)[C@H](NC(=O)[C@@H](CC(=O)O)NC(=O)[C@@H](CCCNC(=N)N)NC(=O)[C@@H](Cc1c[nH]c2ccccc12)NC(=O)[C@@H](CCCNC(=N)N)NC(=O)[C@@H](CO)NC(=O)[C@H](N)CCCNC(=N)N)C(C)C)C(N)=O` [Peptide 192, H2N-rsrwrdvarnflrk(Hexanyl)-NH2] (H-[dR][dS][dR][dW][dR][dD][dV][dA][dR][dN][dF][dL][dR][dK](Hexanoyl)-NH2), for which the “MIC S. aureus” value in test [1] was over 64 µg/mL. Besides, the “MIC S. dublin” value in test [2] is over 64 µg/mL.
Consider `CCCCCC(=O)NCCCC[C@@H](NC(=O)[C@@H](CCCNC(=N)N)NC(=O)[C@@H](CCSC)NC(=O)[C@@H](Cc1ccccc1)NC(=O)[C@@H](CC(N)=O)NC(=O)[C@@H](CCCNC(=N)N)NC(=O)[C@@H](C)NC(=O)[C@H](NC(=O)[C@@H](CC(=O)O)NC(=O)[C@@H](CCCNC(=N)N)NC(=O)[C@@H](Cc1c[nH]c2ccccc12)NC(=O)[C@@H](CCCNC(=N)N)NC(=O)[C@@H](CO)NC(=O)[C@H](N)CCCNC(=N)N)C(C)C)C(N)=O` [Peptide 197, H2N-rsrwrdvarnfmrk(Hexanyl)-NH2] (H-[dR][dS][dR][dW][dR][dD][dV][dA][dR][dN][dF][dM][dR][dK](Hexanoyl)-NH2), for which the “MIC S. aureus” value in test [1] is over 64 µg/mL. The “MIC S. dublin” value in test [2] was over 64 µg/mL.
Turning to `CCCCCCCC(=O)N[C@@H](CCCNC(=N)N)C(=O)N[C@@H](CO)C(=O)N[C@@H](CCCNC(=N)N)C(=O)N[C@@H](Cc1c[nH]c2ccccc12)C(=O)N[C@@H](CCCNC(=N)N)C(=O)N[C@@H](CC(=O)O)C(=O)N[C@H](C(=O)N[C@@H](C)C(=O)N[C@@H](CCCNC(=N)N)C(=O)N[C@@H](CC(N)=O)C(=O)N[C@@H](Cc1ccccc1)C(=O)N[C@@H](CCSC)C(=O)N[C@@H](CCCNC(=N)N)C(N)=O)C(C)C` [Peptide 203, Octyl-RSRWRDVARNFMR-NH2] (Octanoyl-RSRWRDVARNFMR-NH2), the “MIC S. aureus” value in test [1] stood at 32 µg/mL (≈ 17.1 µM). Besides, the “MIC S. dublin” value in test [2] was over 64 µg/mL.
In the case of `CCCCCCCCCCCC(=O)NCCNC(=O)C[C@H](CCCNC(=N)N)NC(=O)C[C@H](CC(C)C)NC(=O)C[C@H](Cc1ccccc1)NC(=O)C[C@H](CCCNC(=N)N)NC(=O)C[C@H](CC(N)=O)NC(=O)C[C@@H](NC(=O)C[C@H](CCCNC(=N)N)NC(=O)C[C@H](CC(=O)O)NC(=O)C[C@@H](NC(=O)C[C@H](CCCNC(=N)N)NC(=O)C[C@H](CO)NC(=O)C[C@H](Cc1c[nH]c2ccccc12)NC(=O)C[C@@H](N)CCCNC(=N)N)[C@@H](C)CC)[C@@H](C)CC` [Peptide 216, H2N-RWSRIDRINRFLR-Ethylamidolauryl all amino acids are beta3], the “MIC S. aureus” value in test [1] worked out at 8 µg/mL (≈ 3.64 µM). Besides, the “MIC S. dublin” value in test [2] worked out at 16 µg/mL (≈ 7.29 µM).
